Measured values as given in ChEMBL document CHEMBL5608163, “Structure modification of anoplin for fighting resistant bacteria” (Eur J Med Chem, 2024).
≈ marks a conversion by molar mass, not a printed value. Bridge positions count the residues as written; N and C are the ends. Square brackets hold non-standard residues; d marks the D form. Peptide text beside a SMILES is read from it. I, II: the chains in the order shown. * marks the point of attachment. ξ: configuration not given here. Lauroyl = CCCCCCCCCCCC(=O)*; Decanoyl = CCCCCCCCCC(=O)*; Octanoyl = CCCCCCCC(=O)*; Hexanoyl = CCCCCC(=O)*; ξK = NCCCCC(N)C(=O)O; Butyryl = CCCC(=O)*

Assays:
Erythrocyte = test: Hemolytic activity in human erythrocyte incubated for 70 mins by absorbance based assay; type: toxicity, cell-based; conditions: 1.167 h
Pseudomonas aeruginosa = test: Antibacterial activity against Pseudomonas aeruginosa ATCC 27853 assessed as reduction in bacterial cell growth incubated for 16 to 24 hrs by CLSI-protocol based Mueller-Hinton Broth micro-dilution method; type: functional; conditions: time 16-24 hrs
Bacillus subtilis = test: Antibacterial activity against Bacillus subtilis ATCC 23857 assessed as reduction in bacterial cell growth incubated for 16 to 24 hrs by CLSI-protocol based Mueller-Hinton Broth micro-dilution method; type: functional; conditions: time 16-24 hrs
Staphylococcus aureus = test: Antibacterial activity against Staphylococcus aureus ATCC 25923 assessed as reduction in bacterial cell growth incubated for 16 to 24 hrs by CLSI-protocol based Mueller-Hinton Broth micro-dilution method; type: functional; conditions: time 16-24 hrs
Escherichia coli = test: Antibacterial activity against Escherichia coli ATCC 25922 assessed as reduction in bacterial cell growth incubated for 16 to 24 hrs by CLSI-protocol based Mueller-Hinton Broth micro-dilution method; type: functional; conditions: time 16-24 hrs
Klebsiella pneumoniae = test: Antibacterial activity against Klebsiella pneumoniae ATCC 700603 assessed as reduction in bacterial cell growth incubated for 16 to 24 hrs by CLSI-protocol based Mueller-Hinton Broth micro-dilution method; type: functional; conditions: time 16-24 hrs

| Molecule | HC10 (Erythrocyte) | MIC (Pseudomonas aeruginosa) | MIC (Bacillus subtilis) | MIC (Staphylococcus aureus) | MIC (Escherichia coli) | MIC (Klebsiella pneumoniae) |
| --- | --- | --- | --- | --- | --- | --- |
| I: Decanoyl-GLLKRIKTLL[ξK][ξK]-NH2 / II: Decanoyl-GLLKRIKTLL[ξK] / III: Decanoyl-GLLKRIKTLL / IV: Decanoyl-GLLKRIKTLL (amide I:11-IV:C, I:12-II:C, II:11-III:C) | 12.51 µM | 256 µM | 256 µM | 256 µM | 256 µM | 256 µM |
| CCCCCCCC(=O)NCC(=O)N[C@@H](CC(C)C)C(=O)N[C@@H](CC(C)C)C(=O)N[C@@H](CCCCN)C(=O)N[C@@H](CCCNC(=N)N)C(=O)N[C@H](C(=O)N[C@@H](CCCCN)C(=O)N[C@H](C(=O)N[C@@H](CC(C)C)C(=O)N[C@@H](CC(C)C)C(=O)NCCCCC(NC(=O)[C@H](CC(C)C)NC(=O)[C@H](CC(C)C)NC(=O)[C@@H](NC(=O)[C@H](CCCCN)NC(=O)[C@@H](NC(=O)[C@H](CCCNC(=N)N)NC(=O)[C@H](CCCCN)NC(=O)[C@H](CC(C)C)NC(=O)[C@H](CC(C)C)NC(=O)CNC(=O)CCCCCCC)[C@@H](C)CC)[C@@H](C)O)C(N)=O)[C@@H](C)O)[C@@H](C)CC (stereo not given in full) (I: Octanoyl-GLLKRIKTLL[ξK]-NH2 / II: Octanoyl-GLLKRIKTLL; amide I:11-II:C) | 5.67 µM | 128 µM (≈ 342 µg/mL) | 32 µM (≈ 85.5 µg/mL) | 64 µM (≈ 171 µg/mL) | 16 µM (≈ 42.7 µg/mL) | 32 µM (≈ 85.5 µg/mL) |
| CCCCCCCCCCCC(=O)NCC(=O)N[C@@H](CC(C)C)C(=O)N[C@@H](CC(C)C)C(=O)N[C@@H](CCCCN)C(=O)N[C@@H](CCCNC(=N)N)C(=O)N[C@H](C(=O)N[C@@H](CCCCN)C(=O)N[C@H](C(=O)N[C@@H](CC(C)C)C(=O)N[C@@H](CC(C)C)C(N)=O)[C@@H](C)O)[C@@H](C)CC (Lauroyl-GLLKRIKTLL-NH2) | 11.38 µM | 32 µM (≈ 42.7 µg/mL) | 16 µM (≈ 21.4 µg/mL) | 16 µM (≈ 21.4 µg/mL) | 64 µM (≈ 85.5 µg/mL) | 128 µM (≈ 171 µg/mL) |
| CCCCCC(=O)NCC(=O)N[C@@H](CC(C)C)C(=O)N[C@@H](CC(C)C)C(=O)N[C@@H](CCCCN)C(=O)N[C@@H](CCCNC(=N)N)C(=O)N[C@H](C(=O)N[C@@H](CCCCN)C(=O)N[C@H](C(=O)N[C@@H](CC(C)C)C(=O)N[C@@H](CC(C)C)C(=O)NCCCCC(NC(=O)[C@H](CC(C)C)NC(=O)[C@H](CC(C)C)NC(=O)[C@@H](NC(=O)[C@H](CCCCN)NC(=O)[C@@H](NC(=O)[C@H](CCCNC(=N)N)NC(=O)[C@H](CCCCN)NC(=O)[C@H](CC(C)C)NC(=O)[C@H](CC(C)C)NC(=O)CNC(=O)CCCCC)[C@@H](C)CC)[C@@H](C)O)C(N)=O)[C@@H](C)O)[C@@H](C)CC (stereo not given in full) (I: Hexanoyl-GLLKRIKTLL[ξK]-NH2 / II: Hexanoyl-GLLKRIKTLL; amide I:11-II:C) | 6.08 µM | 16 µM (≈ 41.8 µg/mL) | 8 µM (≈ 20.9 µg/mL) | 8 µM (≈ 20.9 µg/mL) | 4 µM (≈ 10.5 µg/mL) | 8 µM (≈ 20.9 µg/mL) |
| CCCC(=O)NCC(=O)N[C@@H](CC(C)C)C(=O)N[C@@H](CC(C)C)C(=O)N[C@@H](CCCCN)C(=O)N[C@@H](CCCNC(=N)N)C(=O)N[C@H](C(=O)N[C@@H](CCCCN)C(=O)N[C@H](C(=O)N[C@@H](CC(C)C)C(=O)N[C@@H](CC(C)C)C(=O)NCCCCC(NC(=O)[C@H](CC(C)C)NC(=O)[C@H](CC(C)C)NC(=O)[C@@H](NC(=O)[C@H](CCCCN)NC(=O)[C@@H](NC(=O)[C@H](CCCNC(=N)N)NC(=O)[C@H](CCCCN)NC(=O)[C@H](CC(C)C)NC(=O)[C@H](CC(C)C)NC(=O)CNC(=O)CCC)[C@@H](C)CC)[C@@H](C)O)C(N)=O)[C@@H](C)O)[C@@H](C)CC (stereo not given in full) (I: Butyryl-GLLKRIKTLL[ξK]-NH2 / II: Butyryl-GLLKRIKTLL; amide I:11-II:C) | 27.61 µM | 8 µM (≈ 20.5 µg/mL) | 4 µM (≈ 10.2 µg/mL) | 8 µM (≈ 20.5 µg/mL) | 4 µM (≈ 10.2 µg/mL) | 8 µM (≈ 20.5 µg/mL) |
| I: H-GLLKRIKTLL[ξK][ξK]-NH2 / II: H-GLLKRIKTLL[ξK] / III: H-GLLKRIKTLL / IV: H-GLLKRIKTLL (amide I:11-IV:C, I:12-II:C, II:11-III:C) | 1.31 µM | 8 µM | 8 µM | 8 µM | 8 µM | 16 µM |
| I: Butyryl-GLLKRIKTLL[ξK][ξK]-NH2 / II: Butyryl-GLLKRIKTLL[ξK] / III: Butyryl-GLLKRIKTLL / IV: Butyryl-GLLKRIKTLL (amide I:11-IV:C, I:12-II:C, II:11-III:C) | 1.06 µM | 8 µM | 16 µM | 16 µM | 8 µM | 32 µM |
| I: Hexanoyl-GLLKRIKTLL[ξK][ξK]-NH2 / II: Hexanoyl-GLLKRIKTLL[ξK] / III: Hexanoyl-GLLKRIKTLL / IV: Hexanoyl-GLLKRIKTLL (amide I:11-IV:C, I:12-II:C, II:11-III:C) | 10.91 µM | 32 µM | 32 µM | 32 µM | 32 µM | 32 µM |
| CCCCCCCCCCCC(=O)NCC(=O)N[C@@H](CC(C)C)C(=O)N[C@@H](CC(C)C)C(=O)N[C@@H](CCCCN)C(=O)N[C@@H](CCCNC(=N)N)C(=O)N[C@H](C(=O)N[C@@H](CCCCN)C(=O)N[C@H](C(=O)N[C@@H](CC(C)C)C(=O)N[C@@H](CC(C)C)C(=O)NCCCCC(NC(=O)[C@H](CC(C)C)NC(=O)[C@H](CC(C)C)NC(=O)[C@@H](NC(=O)[C@H](CCCCN)NC(=O)[C@@H](NC(=O)[C@H](CCCNC(=N)N)NC(=O)[C@H](CCCCN)NC(=O)[C@H](CC(C)C)NC(=O)[C@H](CC(C)C)NC(=O)CNC(=O)CCCCCCCCCCC)[C@@H](C)CC)[C@@H](C)O)C(N)=O)[C@@H](C)O)[C@@H](C)CC (stereo not given in full) (I: Lauroyl-GLLKRIKTLL[ξK]-NH2 / II: Lauroyl-GLLKRIKTLL; amide I:11-II:C) | 15.16 µM | 256 µM (≈ 712 µg/mL) | 256 µM (≈ 712 µg/mL) | 256 µM (≈ 712 µg/mL) | 128 µM (≈ 356 µg/mL) | 256 µM (≈ 712 µg/mL) |
| CCCCCC(=O)NCC(=O)N[C@@H](CC(C)C)C(=O)N[C@@H](CC(C)C)C(=O)N[C@@H](CCCCN)C(=O)N[C@@H](CCCNC(=N)N)C(=O)N[C@H](C(=O)N[C@@H](CCCCN)C(=O)N[C@H](C(=O)N[C@@H](CC(C)C)C(=O)N[C@@H](CC(C)C)C(N)=O)[C@@H](C)O)[C@@H](C)CC (Hexanoyl-GLLKRIKTLL-NH2) | > 256 µM | 16 µM (≈ 20 µg/mL) | 16 µM (≈ 20 µg/mL) | 64 µM (≈ 80.1 µg/mL) | 128 µM (≈ 160 µg/mL) | 128 µM (≈ 160 µg/mL) |
| CCCCCCCC(=O)NCC(=O)N[C@@H](CC(C)C)C(=O)N[C@@H](CC(C)C)C(=O)N[C@@H](CCCCN)C(=O)N[C@@H](CCCNC(=N)N)C(=O)N[C@H](C(=O)N[C@@H](CCCCN)C(=O)N[C@H](C(=O)N[C@@H](CC(C)C)C(=O)N[C@@H](CC(C)C)C(N)=O)[C@@H](C)O)[C@@H](C)CC (Octanoyl-GLLKRIKTLL-NH2) | 210.63 µM | 8 µM (≈ 10.2 µg/mL) | 8 µM (≈ 10.2 µg/mL) | 8 µM (≈ 10.2 µg/mL) | 16 µM (≈ 20.5 µg/mL) | 16 µM (≈ 20.5 µg/mL) |
| I: Lauroyl-GLLKRIKTLL[ξK][ξK]-NH2 / II: Lauroyl-GLLKRIKTLL[ξK] / III: Lauroyl-GLLKRIKTLL / IV: Lauroyl-GLLKRIKTLL (amide I:11-IV:C, I:12-II:C, II:11-III:C) | 210.92 µM | 256 µM | 256 µM | 256 µM | 125 µM | 256 µM |
| I: Octanoyl-GLLKRIKTLL[ξK][ξK]-NH2 / II: Octanoyl-GLLKRIKTLL[ξK] / III: Octanoyl-GLLKRIKTLL / IV: Octanoyl-GLLKRIKTLL (amide I:11-IV:C, I:12-II:C, II:11-III:C) | 103.4 µM | 256 µM | 256 µM | 256 µM | 256 µM | 256 µM |
| CC[C@H](C)[C@H](NC(=O)[C@H](CCCNC(=N)N)NC(=O)[C@H](CCCCN)NC(=O)[C@H](CC(C)C)NC(=O)[C@H](CC(C)C)NC(=O)CN)C(=O)N[C@@H](CCCCN)C(=O)N[C@H](C(=O)N[C@@H](CC(C)C)C(=O)N[C@@H](CC(C)C)C(=O)NCCCCC(NC(=O)[C@H](CC(C)C)NC(=O)[C@H](CC(C)C)NC(=O)[C@@H](NC(=O)[C@H](CCCCN)NC(=O)[C@@H](NC(=O)[C@H](CCCNC(=N)N)NC(=O)[C@H](CCCCN)NC(=O)[C@H](CC(C)C)NC(=O)[C@H](CC(C)C)NC(=O)CN)[C@@H](C)CC)[C@@H](C)O)C(N)=O)[C@@H](C)O (stereo not given in full) (I: H-GLLKRIKTLL[ξK]-NH2 / II: H-GLLKRIKTLL; amide I:11-II:C) | 51.2 µM | 8 µM (≈ 19.3 µg/mL) | 4 µM (≈ 9.67 µg/mL) | 16 µM (≈ 38.7 µg/mL) | 8 µM (≈ 19.3 µg/mL) | 8 µM (≈ 19.3 µg/mL) |
| CCCCCCCCCC(=O)NCC(=O)N[C@@H](CC(C)C)C(=O)N[C@@H](CC(C)C)C(=O)N[C@@H](CCCCN)C(=O)N[C@@H](CCCNC(=N)N)C(=O)N[C@H](C(=O)N[C@@H](CCCCN)C(=O)N[C@H](C(=O)N[C@@H](CC(C)C)C(=O)N[C@@H](CC(C)C)C(=O)NCCCC[C@H](NC(=O)[C@H](CCCCNC(=O)[C@H](CC(C)C)NC(=O)[C@H](CC(C)C)NC(=O)[C@@H](NC(=O)[C@H](CCCCN)NC(=O)[C@@H](NC(=O)[C@H](CCCNC(=N)N)NC(=O)[C@H](CCCCN)NC(=O)[C@H](CC(C)C)NC(=O)[C@H](CC(C)C)NC(=O)CNC(=O)CCCCCCCCC)[C@@H](C)CC)[C@@H](C)O)NC(=O)[C@H](CC(C)C)NC(=O)[C@H](CC(C)C)NC(=O)[C@@H](NC(=O)[C@H](CCCCN)NC(=O)[C@@H](NC(=O)[C@H](CCCNC(=N)N)NC(=O)[C@H](CCCCN)NC(=O)[C@H](CC(C)C)NC(=O)[C@H](CC(C)C)NC(=O)CNC(=O)CCCCCCCCC)[C@@H](C)CC)[C@@H](C)O)C(N)=O)[C@@H](C)O)[C@@H](C)CC (I: Decanoyl-GLLKRIKTLLKK-NH2 / II: Decanoyl-GLLKRIKTLL / III: Decanoyl-GLLKRIKTLL; amide I:11-III:C, I:12-II:C) | 146.63 µM |  |  |  |  |  |
